Patent US11254644B2, “Inhibitors of alpha-amino-beta-carboxymuconic acid semialdehyde decarboxylase” (TES Pharma S.r.l., priority 2014, dated 2022)

Key:
[1] = target: hACMSD (ACMSD1) (Homo sapiens (Human), UniProt Q8TDX5); experiment: Determination of ACMSD1 inhibition, spectrophotometrical in vitro assay; type: biochemical; settings: HAA concentration of 10 μM
Method: The activity of compounds as inhibitors of ACMSD1 is determined in a spectrophotometrical in vitro assay. The pre-assay mixture is incubated and a compound of Formula (I), Formula (Ia), Formula (Ib), Formula (II), or Formula (III), or a pharmaceutically acceptable salt thereof, and ACMSD1 solution is then added. The effect of ACMS concentration on the enzyme activity is investigated by varying 3-hydroxyanthranilic acid (3OH-HA) concentration in the pre-assay mixture. Kinetic parameters are calculated from the initial velocity data using a Lineweaver-Burk plot.
The activity of compounds 1-19 and 21-23 as inhibitors of ACMSD1 was determined by measuring the conversion of 3OH-Anthranilic Acid into product (i.e., ACMS) in a spectrophotometrical in vitro assay.
The pre-assay mixture consisting of 3-hydroxyanthranilic acid (3OH-HA), 3-hydroxyanthranilic acid, 3,4-diOxygenase (HAO), and a dialyzed crude extract of E. coli BL21 (DE3) cells expressing the recombinant enzyme, was incubated at 25° C. with monitoring of the increase in absorbance at 360 nm due to the formation of ACMS from 3OH-HA. After the reaction was completed within ˜2 mins, an aliquot of ACMSD1 solution (prepared and purified from Pichia Pastoris overexpressing the recombinant enzyme) was added, and the decrease in absorbance at 360 nm was followed at 15 second intervals. The effect of ACMS concentration on the enzyme activity was investigated by varying 3OH-HA concentration from 2 to 20 μM. Kinetic parameters were calculated from the initial velocity data by using the Lineweaver-Burk plot.
The rate of the decrease in absorbance caused by ACMSD1 was calculated by subtracting that of the control reaction mixture without ACMSD from that described above. One unit of ACMSD activity was indicated as the amount of enzyme that converts 1 mmol of ACMS per minute at 25° C. The absence or a reduction of ACMSD1 activity (e.g., by using ACMSD inhibitors) results in a slow ACMS-spontaneous degradation (i.e., cyclization to form quinolic acid).
The enzymatic activity was determined at a HAA concentration of 10 μM in the presence of the compounds in Table 1 below. The compounds were tested at the concentration of about 5 μM and 10 μM and the IC50 was calculated for compounds showing inhibitory activity higher than 50%.

[2] = system: SOD2 activity in primary murine hepatocytes; experiment: Modulation of SOD2 activity in murine primary hepatocytes; type: cell-based, mouse
Method: Primary hepatocytes or AML-12 cells are lysed and total protein concentration is determined using the Bradford assay. SOD2 activity is determined at indicated times after treatment with a compound of Formula (I), Formula (Ia), Formula (Ib), Formula (II), or Formula (III), or a pharmaceutically acceptable salt thereof, using a SOD Assay Kit. Absorbance is determined and results are expressed in U/ml/mg of protein according to the standard curve and measured protein concentration.
Primary hepatocytes were prepared from 8-12-week-old C57BL/6J mice by collagenase perfusion method. […] Cell viability was assessed by the trypan blue method. […]
Primary hepatocytes or AML-12 cells were then lysed in a 20 mM HEPES buffer (Gibco), pH 7.2, containing 1 mM EGTA (Sigma), 210 mM mannitol (Sigma), and 70 mM sucrose (AMRESCO). Total protein concentration was determined using the Bradford assay (BioRad). SOD-2 activity was determined at indicated times after ACMSD inhibitor treatment by the SOD Assay Kit (Cayman Chemical) according to the manufacturer's instructions. […] Absorbance was determined with a Victor X4 multi-label plate reader (Perkin-Elmer) at 450 nm. Results are expressed in U/ml/mg of protein according to the standard curve and measured protein concentration.

[3] = system: SIRT1-regulated genes (Pgc1a, Sod1, Sod2) in primary mouse hepatocytes; experiment: RT-qPCR analysis of SIRT1-regulated genes in primary murine hepatocytes; type: cell-based; settings: 24 hrs, 5 nM-500 nM range
Method: Cells (AML-12, Hepa-1.6, HEK-293, primary human and murine hepatocytes) are treated with different concentrations of a compound of Formula (I), Formula (Ia), Formula (Ib), Formula (II), or Formula (III), or a pharmaceutically acceptable salt thereof and the gene expression of ACMSD, Pgc1a, Sod1, and Sod2 (MnSOD) is determined using RT-qPCR. Total RNA is extracted from cells and the extracted RNA is treated with DNase and used for reverse transcription (RT).
Primary hepatocytes were prepared from 8-12-week-old C57BL/6J mice by collagenase perfusion method. Mouse livers were perfused with Hank's balanced salt solution (HBSS, KCl, 5.4 mM; KH2PO4, 0.45 mM; NaCl, 138 mM; NaHCO3, 4.2 mM; Na2HPO4, 0.34 mM; glucose, 5.5 mM; HEPES, 1 M; EGTA, 50 mM; CaCl2), 50 mM; pH 7.4). Livers were then washed at a rate of 5 ml/min through the portal vein. After washing, livers were perfused with collagenase (0.025%) solution. Cell viability was assessed by the trypan blue method. Isolated primary hepatocytes were plated with DMEM medium (Gibco) including 10% FCS, 10 units per ml penicillin and HEPES for buffering. The cells were maintained in culture at 37° C. in a humidified atmosphere of 5% CO2/95% air. After 6-8 hrs of attachment, this medium was replaced with media containing different concentrations of an ACMSD inhibitor (i.e., Compound 1 or Compound 17) or with the corresponding concentration of DMSO (as a control). Primary hepatocytes were harvested about 24 hrs later if not indicated differently.
Gene expression of ACMSD and genes known to be regulated by SIRT1, (an enzyme that is strictly NAD^+ dependent) such as Pgc1a, Sod1, Sod2 (MnSOD), were analysed in AML-12 cells, Hepa-1.6 cells and primary murine hepatocytes treated with Compound 1 or 17.
Cells (AML-12, Hepa-1.6, HEK-293, primary human and murine hepatocytes) were treated with different concentrations of Compound 1 or Compound 17. Total RNA was extracted from cells using TRIzol (Invitrogen) according to the manufacturer's instructions. […] 50× diluted cDNA was used for RT-quantitative PCR (RT-qPCR) reactions. […]

[4] = system: murine primary hepatocytes; experiment: NAD+ content in murine primary hepatocytes (HPLC, mass spectrometry); type: cell-based, mouse; settings: 24 hours
From the text: NAD^+ is extracted using acidic extraction method and samples are collected and homogenized. After insoluble protein parts are pelleted, the samples are separated by high-performance liquid chromatography (HPLC) and analyzed by mass-spectrometry. The proteins in the pellet are quantified by Bradford assay and are used for normalization.
NAD^+ was extracted using acidic extraction method. Samples were collected and homogenized in 70% ice-cold perchloric acid (HClO4). After insoluble protein parts were pelleted by adding potassium carbonate (K2CO3), the samples were separated by high-performance liquid chromatography (HPLC) and analyzed by mass-spectrometry. The proteins in the pellet were quantified by Bradford assay and were used for normalization.

[5] = system: human primary hepatocytes; experiment: NAD+ content in human primary hepatocytes (LCMS/MS); type: cell-based; settings: 0.5 μM and 5 μM; compound replaced every 24 hrs
Method: Primary hepatocytes are treated with different concentrations of a compound of Formula (I), Formula (Ia), Formula (Ib), Formula (II), or Formula (III), or a pharmaceutically acceptable salt thereof, or MEHP (control) after seeding. The compound is replaced every 24 hours, and then cells are directly harvested and lysed to detect NAD^+ content through LC MS/MS (liquid chromatography mass spectrometry/mass spectroscopy).
The NAD^+ concentration or content was determined in human primary hepatocytes treated with Compound 4. Vehicle (NT) was used as a control.
At least three experiments were run treating primary hepatocytes with different concentrations of Compound 4 (0.5 μM and 5 μM) after 48 hrs from seeding. Compound 4 was replaced every 24 hrs, and then cells were directly harvested and lysed with ACN/H2O (ratio 5:1). LCMS/MS was used to detect and measure NAD^+ concentration/content. […] (FIG. 1)
The NAD^+ concentration or content was determined in human primary hepatocytes treated with Compound 1 and MEHP, a known ACMSD inhibitor. MEHP was used as a control.
At least three experiments were run treating primary hepatocytes with different concentrations of Compound 1 (0.5 μM, 5 μM, and 50 μM) after 48 hrs from seeding. Compound 1 was replaced every 24 hrs, and then cells were directly harvested and lysed with ACN/H2O (ratio 5:1). […]

[6] = system: Caspase 3/7 activity in MDCK cells; experiment: Modulation of cisplatin-induced caspase 3/7 activity in MDCK cells; type: cell-based; settings: p<0.001
Method: MDCK cells are cultured in base medium to a final concentration of 10%. Cells are plated into 96 wells and 24 hours after cell plating the medium is changed with fresh medium supplemented with 1% FBS. Cisplatin is then used to induce cell injury. Different concentrations of Formula (I), Formula (Ia), Formula (Ib), Formula (II), or Formula (III), or a pharmaceutically acceptable salt thereof (in DMSO) are added in combination with cisplatin or prior to adding cisplatin. Caspase 3/7 activity (Promega) is determined according to standard procedures using a luminescent signal readout on a plate reader. Each experiment/condition is performed in triplicate. Caspase activity is analyzed as percentage effect normalized to the cisplatin alone and vehicle treated cells.
MDCK cells (MDCK (NBL-2) ATCC® CCL-34™) were cultured in base medium ATCC-formulated Eagle's Minimum Essential Medium, Catalog No. 30-2003 with fetal bovine serum (FBS) to a final concentration of 10%. […]
Caspase 3/7 activity (Promega) was determined according to standard procedures using a luminescent signal readout on a Victor V plate reader (PerkinElmer). […]
Caspase activity was analyzed as percentage effect normalized to the cisplatin alone (100%) and vehicle treated cells as 0% of caspase activity. Data were analyzed by GraphPad Software. […]

Sequence of hACMSD (ACMSD1) (Q8TDX5 whole entry): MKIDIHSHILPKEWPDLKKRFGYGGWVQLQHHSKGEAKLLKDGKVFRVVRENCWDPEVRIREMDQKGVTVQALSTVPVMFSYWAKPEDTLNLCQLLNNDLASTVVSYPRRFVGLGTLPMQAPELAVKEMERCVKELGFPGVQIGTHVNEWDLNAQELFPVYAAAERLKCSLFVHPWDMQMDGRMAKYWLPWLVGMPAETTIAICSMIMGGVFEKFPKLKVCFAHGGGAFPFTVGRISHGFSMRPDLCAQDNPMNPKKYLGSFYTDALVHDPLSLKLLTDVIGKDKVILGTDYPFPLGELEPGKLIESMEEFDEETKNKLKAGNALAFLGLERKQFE

Compound	IC50 [1]	other results
N#Cc1c(C2CCCCC2)nc(SCc2cccc(C(=O)O)c2)[nH]c1=O [Compound 6]	77 nM	–
CC(Sc1nc(-c2ccccc2)c(C#N)c(=O)[nH]1)C(=O)O (centres unmarked) [Compound 21]	1990 nM	–
Cc1nc(SCc2cccc(C(=O)O)c2)[nH]c(=O)c1C#N [Compound 10]	1700 nM	–
N#Cc1c(-c2ccsc2)nc(SCc2cccc(C(=O)O)c2)[nH]c1=O [Compound 3]	31 nM	–
N#Cc1c(-c2ccc(Cl)cc2)nc(SCc2ccc(C(=O)O)cc2)[nH]c1=O [Compound 8]	82 nM	–
N#Cc1c(-c2nccs2)nc(SCc2cccc(C(=O)O)c2)[nH]c1=O [Compound 5]	49 nM	–
N#Cc1c(-c2cccs2)nc(SCC(=O)Nc2ccccc2O)[nH]c1=O [Compound 23]	4900 nM	–
O=C(O)c1cccc(CSc2nc(-c3ccccc3)c(Cl)c(=O)[nH]2)c1 [Compound 13]	136 nM	–
CCOC(=O)c1cccc(CSc2nc(-c3ccc(C)cc3)c(C#N)c(=O)[nH]2)c1 [Compound 9]	960 nM	–
N#Cc1c(-c2cccs2)nc(SCc2cccc(-c3nn[nH]n3)c2)[nH]c1=O [Compound 17]	5 nM	dose at which SOD2 effect reached a maximum [2]: about 50 nM; Pgc1a mRNA expression level [3]: dose-dependent increase; Sod1 (Cu-Zn SOD) mRNA expression level [3]: but not Sod1; Sod2 (MnSOD) mRNA expression level [3]: dose-dependent increase; lowest concentration with significant effect on NAD+ levels [4]: ≤ 5 nM
N#Cc1c(-c2cccs2)nc(SCc2cccc(C(=O)O)c2)[nH]c1=O [Compound 4]	12 nM	ACMSD-1 inhibition, NAD+ content screening (FIG. 1) [5]: inhibits ACMSD-1 enzyme
O=C(O)c1cccc(CSc2nc(-c3ccccc3)c(Br)c(=O)[nH]2)c1 [Compound 11]	71 nM	–
N#Cc1c(-c2ccccc2)nc(SCc2ccc(C(=O)O)cc2)[nH]c1=O [Compound 16]	110 nM	–
N#Cc1c(-c2ccncc2)nc(SCc2cccc(C(=O)O)c2)[nH]c1=O [Compound 7]	82 nM	–
N#Cc1c(-c2cccs2)nc(SCc2cccc(CC(=O)O)c2)[nH]c1=O [Compound 18]	10 nM	caspase activity compared to cisplatin alone ([6]; 100 μM, in combination with cisplatin): decreased caspase activity in significant manner; caspase activity compared to cisplatin alone ([6]; about 30 μM to about 125 μM, one hour prior to cisplatin): decreased caspase activity in significant manner
N#Cc1c(Cl)nc(SCc2cccc(C(=O)O)c2)nc1-c1ccccc1 [Compound 22]	1100 nM	–
N#Cc1c(-c2cccs2)nc(SCc2cccc(-c3noc(=O)[nH]3)c2)[nH]c1=O [Compound 19]	25 nM	–
O=C(O)c1cccc(CSc2nc(-c3cccs3)cc(=O)[nH]2)c1 [Compound 15]	760 nM	–
O=C(O)c1cccc(CSc2nc(-c3ccccc3)cc(=O)[nH]2)c1 [Compound 14]	740 nM	–
N#Cc1c(-c2ccco2)nc(SCc2cccc(C(=O)O)c2)[nH]c1=O [Compound 2]	66 nM	–
O=C(O)c1cccc(CSc2nc(-c3cccs3)c(Br)c(=O)[nH]2)c1 [Compound 12]	88 nM	–
